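Each compound was tested at five concentrations against cells in 96-well plates for 48 hours. GI50 is the concentration that inhibits growth by half.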 Active and inactive are the calls of the source. No stated cut-off is given here; in the data, active = GI50 up to about 1.1 µM and inactive = higher.
Columns and labels:
Assay in all cases: growth of human tumour cells (NCI), 48 h
[1] = tested on: DLD-1
[2] = tested on: DMS-114
[3] = tested on: DMS-273
[4] = tested on: HOP-18
[5] = tested on: KM-20L2
[6] = tested on: LXFL 529
[7] = tested on: M19-MEL
[8] = tested on: SNB-78
[9] = tested on: RXF 631

Row | SMILES | GI50 [1] | GI50 [2] | GI50 [3] | GI50 [4] | GI50 [5] | GI50 [6] | GI50 [7] | GI50 [8] | GI50 [9]
1 | COC1/C=C\C=C(/C)C(=O)NC2=CC(=O)C(NCCCl)=C(CC(C)CC(OC)C(O)C(C)/C=C(/C)C1OC(N)=O)C2=O (stereo not drawn) | 0.0266 µM (active) | 0.0296 µM (active) | 0.053 µM (active) | 0.0308 µM (active) | 0.0134 µM (active) | 0.0298 µM (active) | 0.0366 µM (active) | 0.655 µM (active) | 
2 | C=C1C(=O)O[C@H](c2ccoc2)C[C@@H]1[C@@]1(C)CCCC2(C)C(=O)OCC21 (stereo partly drawn) |  | > 100 µM (inactive) | > 100 µM (inactive) |  | > 100 µM (inactive) | > 100 µM (inactive) | > 100 µM (inactive) | > 100 µM (inactive) | 
3 | CC(C)(C)c1cc(CCC(=O)Nc2ccc(Cl)cc2)nc(NC#N)n1 | > 100 µM (inactive) |  | > 100 µM (inactive) | > 100 µM (inactive) | > 100 µM (inactive) | > 100 µM (inactive) | > 100 µM (inactive) | > 100 µM (inactive) | 
4 | COC(=O)C12OCC34C(CC5C(C)=CC(=O)C(O)C5(C)C3C(O)C1O)OC(=O)C(OC(=O)CC(C)C)C24 (stereo not drawn) | 0.00149 µM (active) | 0.000659 µM (active) | 0.000401 µM (active) |  | 0.00288 µM (active) | < 0.0255 µM (active) | 0.00134 µM (active) | 0.00346 µM (active) | 
5 | O=c1[c-](-c2ccccc2)[se]c(-c2ccccc2)[n+]1-c1ccccc1 | 2 µM (inactive) | 4.69 µM (inactive) | 19.1 µM (inactive) | 11.5 µM (inactive) |  | 13.5 µM (inactive) | 7.59 µM (inactive) | 3.81 µM (inactive) | 13.6 µM (inactive)
6 | O=C(Nc1ccc(Cl)cc1Cl)OC(Cn1cncn1)c1ccc(Cl)cc1Cl (stereo not drawn) | 18.5 µM (inactive) | 16 µM (inactive) | 17.4 µM (inactive) | 23.8 µM (inactive) | 16.5 µM (inactive) | 16.2 µM (inactive) | 17.1 µM (inactive) | 15.6 µM (inactive) | 18.2 µM (inactive)
7 | COC(=O)Cc1cc(OC)c(OC)cc1Br | > 100 µM (inactive) | > 100 µM (inactive) |  |  | > 100 µM (inactive) | > 100 µM (inactive) | > 100 µM (inactive) | > 100 µM (inactive) | 
8 | Cc1ccc(C(=O)OC(C)C)cc1/N=N/N(C)C | > 100 µM (inactive) |  | 56.5 µM (inactive) |  | 55.5 µM (inactive) | 66.5 µM (inactive) | 97.7 µM (inactive) | 55.3 µM (inactive) | 
9 | CC(C)N(C(=O)C12C3C4C1C1C2C3C41C(=O)O)C(C)C (stereo not drawn) | > 100 µM (inactive) | > 100 µM (inactive) | > 100 µM (inactive) |  | > 100 µM (inactive) | > 100 µM (inactive) |  |  | 
10 | C[N+](C)(C)CC(=O)N/N=C/c1oc(-c2cccc([N+](=O)[O-])c2)c(-c2cccc([N+](=O)[O-])c2)c1[N+](=O)[O-] | 64.4 µM (inactive) | 47.3 µM (inactive) |  |  | > 100 µM (inactive) |  | 38.5 µM (inactive) |  | 49.7 µM (inactive)
11 | COc1cc(C2C(Cl)C(=O)N2NC(=O)c2ccc(N)cc2)cc(Br)c1O (stereo not drawn) | 19 µM (inactive) | 6.35 µM (inactive) | 18 µM (inactive) |  | 17.7 µM (inactive) | 3.15 µM (inactive) | 17.9 µM (inactive) | 17.5 µM (inactive) | 
12 | O=C(O)/C(=C/c1ccccc1[N+](=O)[O-])c1ccccc1 | > 100 µM (inactive) | > 100 µM (inactive) | > 100 µM (inactive) |  | > 100 µM (inactive) | > 100 µM (inactive) | > 100 µM (inactive) | > 100 µM (inactive) | > 100 µM (inactive)
13 | Cc1c(Cl)cccc1NC(=O)c1cccc([N+](=O)[O-])c1O | 21.4 µM (inactive) | 11.5 µM (inactive) | 12.4 µM (inactive) | 2.7 µM (inactive) | 13.1 µM (inactive) | 11.3 µM (inactive) | 13.8 µM (inactive) | 34.1 µM (inactive) | 13.8 µM (inactive)
14 | N#CCc1ccc(/C(C#N)=C2/OC(=N)C(c3ccc(CC#N)cc3)C2=O)cc1 (stereo not drawn) | > 100 µM (inactive) | > 100 µM (inactive) | > 100 µM (inactive) |  | > 100 µM (inactive) | > 100 µM (inactive) | > 100 µM (inactive) | > 100 µM (inactive) | > 100 µM (inactive)
15 | CCOC(=O)Nc1cc2nnc(-c3ccccc3)nc2c(N)n1 | 18.6 µM (inactive) | 27.6 µM (inactive) | 7.36 µM (inactive) |  | 4.25 µM (inactive) | 32.1 µM (inactive) | 4.35 µM (inactive) |  | 
16 | CC(=O)Nc1ccc(-c2nnc(SCC(=O)Nc3ccccc3Cl)o2)cc1 | > 100 µM (inactive) | > 100 µM (inactive) | > 100 µM (inactive) | 87.7 µM (inactive) | > 100 µM (inactive) | > 100 µM (inactive) | > 100 µM (inactive) | > 100 µM (inactive) | 
17 | CCP(C)(C)=O | > 100 µM (inactive) | > 100 µM (inactive) | > 100 µM (inactive) |  | > 100 µM (inactive) | > 100 µM (inactive) | > 100 µM (inactive) | > 100 µM (inactive) | 
18 | COc1cc(OC)cc(-c2cc(O)c3cc4c(cc3n2)OCO4)c1 | 0.311 µM (active) | 0.218 µM (active) | 0.306 µM (active) | 16.3 µM (inactive) | 0.217 µM (active) | 0.211 µM (active) | 0.321 µM (active) | 0.295 µM (active) | 
19 | CCCCCCCCCc1cc(=O)c2c(O)cccc2o1 | 61.8 µM (inactive) | 33 µM (inactive) | 41.8 µM (inactive) | > 100 µM (inactive) |  | 39.2 µM (inactive) | > 10 µM (inactive) | 53 µM (inactive) | 65.6 µM (inactive)
20 | CC(=O)Nc1ccc(Cl)c(Cl)c1 | > 100 µM (inactive) | > 100 µM (inactive) | > 100 µM (inactive) |  | > 100 µM (inactive) | > 100 µM (inactive) | > 100 µM (inactive) | > 100 µM (inactive) | 
